From patent publication US11603546B2, “Method for preparing modified starch and use thereof” (Qilu University of Technology, priority 2020, dated 2023) come the findings set out here.

Assay [1] concerns mice with type II diabetes (STZ injection plus high-glucose-high-fat diet). Nature of the assay: Type II diabetes mouse model: HE staining of liver sections. The format is in vivo, Kunming strain mice. The note with it: diabetic mice, intervention groups (FIGS. 9 to 13). An excerpt: Fifty mice were pregrouped and labeled. In the experiment, type II diabetes models were established by streptozotocin (STZ) injection plus induction by high-glucose-high-fat diet. […] The mice were randomized into five groups of 10 animals: normal group, diabetic control group, glimepiride group, RS group, and modified starch+GSPAs group; before modeling, the mice were weighed.
The normal group was fed with normal diet for three weeks, while the remaining four groups were fed with high-glucose-high-fat diet for three weeks; then, the animals were deprived of food hut not water for 12 h; […] (which was prepared with 0.1 mol/L citric acid-sodium citrate buffer solution [pH 4.4 (4.2-4.5)] at a low temperature) was prepared when needed, and was injected intraperitoneally at a single dose of 50 mg/kg (0.5 mg/10 g) of body weight within 30 min; the mice in the normal group were given isodose citric acid-sodium citrate buffer solution and injected at a dose of 50 mg/kg every three days, during which the mice were fed with high-glucose-high-fat diet. After 72 h, the mice were deprived of food but not water for 12 h, and blood was collected from the tail vein to test the fasting blood glucose (FBG); the mice with FBG≥12 mmol/1, with obesity and polyuria were considered as the criteria for successful modeling. […]

Assay [2] has the same test system. Kind of assay: Type II diabetes mouse model: TC, TG, HDL-C, LDL-C. The format is in vivo, Kunming strain mice. The following applies: diabetic mice, gavage once daily, four weeks. An excerpt:
Fifty mice were pregrouped and labeled. In the experiment, type II diabetes models were established by streptozotocin (STZ) injection plus induction by high-glucose-high-fat diet. […] The mice were randomized into five groups of 10 animals: normal group, diabetic control group, glimepiride group, RS group, and modified starch+GSPAs group; before modeling, the mice were weighed. […] The normal group was fed with normal diet for three weeks, while the remaining four groups were fed with high-glucose-high-fat diet for three weeks; then, the animals were deprived of food hut not water for 12 h; […] (which was prepared with 0.1 mol/L citric acid-sodium citrate buffer solution [pH 4.4 (4.2-4.5)] at a low temperature) was prepared when needed, and was injected intraperitoneally at a single dose of 50 mg/kg (0.5 mg/10 g) of body weight within 30 min; the mice in the normal group were given isodose citric acid-sodium citrate buffer solution and injected at a dose of 50 mg/kg every three days, during which the mice were fed with high-glucose-high-fat diet. After 72 h, the mice were deprived of food but not water for 12 h, and blood was collected from the tail vein to test the fasting blood glucose (FBG); the mice with FBG≥12 mmol/1, with obesity and polyuria were considered as the criteria for successful modeling. Ten normal and healthy mice were assigned to the normal group; the remaining successful modeled mice with type II diabetes were grouped into four groups of 10 animals according to the blood glucose level; the test period was four weeks. Specific groups are listed in Table 2: bw represents body weight. [table] Instructions for gavage dosing: The mice were administered by gavage once daily, in a volume of 0.4 mL. Also, total cholesterol (TC), triglyceride (TG), and low density lipoprotein cholesterol (LDL-C) were tested for diabetic mice, as shown in Table 3.

Marks after values point to notes of the source that are not given here.

Take `CCC1=C(C)CN(C(=O)NCCc2ccc(S(=O)(=O)NC(=O)N[C@H]3CC[C@H](C)CC3)cc2)C1=O` [Glimepiride, glimepiride]: the “HE staining of liver sections” value in assay [1] was “improve symptoms of disordered liver cells and massive inflammatory cell infiltration”. In addition, in assay [2], the “High density lipid cholesterol (HDL-C)” value is 2.26 ± 0.31^a mmol/L, the LDL-C is given as 0.65 ± 0.17^b mmol/L, the TC is reported as 3.16 ± 0.37^b mmol/L and the TG is reported as 1.06 ± 0.09^b mmol/L.
